pKi: −log10 of the molar value.
Tests used:
[1] = target: BCLXL WT (Homo sapiens (Human), UniProt Q07817); experiment: TR-FRET competitive binding assay, BCLXL WT; conditions: for pKi: BCLXL WT, Ki determined from IC50, read-out: TR_FRET EKI BclxL; for TR_FRET EKI BCLxL/WT selectivty ratio: ratio Ki BCLxL / Ki BCL2 WT
Procedure, shortened: (§1)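 Competitive TR-FRET displacement of fluorescein-PUMA peptide (2 or 20 nM) from 0.5 nM terbium-labelled N-terminal Halo-fusion BCL2 (1-207, wild type or mutant) or BCLXL (2-196), expressed in E. coli. Buffer 50 mM Hepes pH 7.5, 150 mM NaCl, 5% DMSO; 2 h at 23°C. 520/495 nm ratio fitted over 11 points for IC50, converted to Ki.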

[2] = system: KMS-12-PE Bcl-2 WT; experiment: In vitro cytotoxicity CellTiter-Glo 48 h, KMS-12-PE Bcl-2 WT; type: cell-based; conditions: Homo sapiens, KMS-12-PE, C50 = concentration needed to reach 50% of the cellular viability
Procedure, shortened: (§2)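 KMS-12-PE myeloma cells were lentivirally transduced with wild-type or G101V-mutant Bcl-2 and sorted by TagRFP. They were exposed to compounds as 11-point dose responses for 48 h at 37 °C, 5% CO2. Viability was read by CellTiter-Glo ATP luminescence, and C50 was the concentration giving 50% viability.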

[3] = target: BCL2 G101V (Homo sapiens, UniProt P10415, G101V); experiment: TR-FRET competitive binding assay, BCL2 G101V; conditions: BCL2 G101V; Ki determined from IC50; read-out: TR_FRET EKI_Bcl2 G101V
Procedure, shortened: as §1

[4] = system: BCL2 G101V; experiment: TR-FRET competitive binding assay, BCL2 G101V; parameters: species or system human; conditions: ratio Ki BCL2 G101V / Ki BCL2 WT
Procedure, shortened: as §1

[5] = target: BCL2 D103Y (Homo sapiens, UniProt P10415, D103Y); experiment: TR-FRET competitive binding assay, BCL2 D103Y; conditions: Ki determined from IC50, read-out: TR_FRET EKI_Bcl2 D103Y
Procedure, shortened: as §1

[6] = target: BCL2 F104I (Homo sapiens, UniProt P10415, F104I); experiment: TR-FRET competitive binding assay, BCL2 F104I; conditions: Ki determined from IC50, read-out: TR_FRET EKI_Bcl2 F104I
Procedure, shortened: as §1

[7] = target: BCL2 D111A (Homo sapiens, UniProt P10415, D111A); experiment: TR-FRET competitive binding assay, BCL2 D111A; conditions: Ki determined from IC50, read-out: TR_FRET EKI_Bcl2 D111A
Procedure, shortened: as §1

[8] = system: KMS-12-PE Bcl-2 G101V; experiment: In vitro cytotoxicity CellTiter-Glo 48 h, KMS-12-PE Bcl-2 G101V; type: cell-based; conditions: for Ratio (G101V/WT): C50 KMS-12-PE Bcl-2 G101V over C50 KMS-12-PE Bcl-2 WT; for IC50: Homo sapiens, KMS-12-PE, 48 h, CellTiter-Glo, C50 = concentration needed to reach 50% of the cellular viability
Procedure, shortened: as §2

[9] = target: BCL2 WT (Homo sapiens (Human), UniProt P10415); experiment: TR-FRET competitive binding assay, BCL2 WT; conditions: Ki determined from IC50, read-out: TR_FRET EKI_Bcl2 WT
Procedure, shortened: as §1

Chain of BCLXL WT (Q07817 other isoform, or with tags, fused parts or gaps): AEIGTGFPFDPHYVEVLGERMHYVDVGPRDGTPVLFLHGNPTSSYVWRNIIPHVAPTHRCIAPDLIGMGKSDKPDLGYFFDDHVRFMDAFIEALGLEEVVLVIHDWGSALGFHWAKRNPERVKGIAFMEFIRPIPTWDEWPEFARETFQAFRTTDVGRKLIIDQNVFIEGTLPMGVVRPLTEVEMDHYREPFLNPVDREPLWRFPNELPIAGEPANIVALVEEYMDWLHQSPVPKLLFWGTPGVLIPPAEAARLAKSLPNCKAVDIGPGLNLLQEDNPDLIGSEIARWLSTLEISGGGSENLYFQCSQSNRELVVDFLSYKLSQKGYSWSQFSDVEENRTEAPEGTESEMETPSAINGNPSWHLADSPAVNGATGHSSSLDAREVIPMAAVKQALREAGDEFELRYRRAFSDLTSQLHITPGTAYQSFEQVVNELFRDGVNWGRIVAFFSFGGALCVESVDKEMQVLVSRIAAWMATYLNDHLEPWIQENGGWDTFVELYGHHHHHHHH

| SMILES | pKi [1] | TR_FRET EKI BCLxL/WT selectivty ratio [1] | IC50 [2] | pKi [3] | TR_FRET EKI G101V/WT selectivty ratio [4] | pKi [5] | pKi [6] | pKi [7] | Ratio (G101V/WT) [8] | IC50 [8] | pKi [9] |
| --- | --- | --- | --- | --- | --- | --- | --- | --- | --- | --- | --- |
| Cc1c(N(C(=O)c2cc(-c3cc4c(cc3C(=O)N3Cc5ccccc5C[C@H]3C)CN(C(=O)Cc3ccc(CCN5CCOCC5)cc3)CC4)n(C)c2C)c2ccc(O)cc2)cc(C#N)n1C [Example 38, N-(5-cyano-1,2-dimethylpyrrol-3-yl)-N-(4-hydroxyphenyl)-1,2-dimethyl-5-(7-{[(3R)-3-methyl-3,4-dihydro-1H-isoquinolin-2-yl]carbonyl}-2-(2-{4-[2-(morpholin-4-yl)ethyl]phenyl}acetyl)-3,4-dihydro-1H-isoquinolin-6-yl)pyrrole-3-carboxamide] | 9.00 | 10.0 | 0.0091 µM | 9.30 | 4.8 | 9.49 | 9.09 | 9.82 | 5.57 | 0.0509 µM | 10.00 |
| Cc1c(N(C(=O)c2cc(-c3cc4c(cc3C(=O)N3Cc5ccccc5C[C@H]3CN3CCCCC3)CN(C(=O)Cc3ccc(Cl)cc3F)CC4)n(C)c2C)c2ccc(O)cc2)cc(C#N)n1C [Example 44, 5-{2-[2-(4-chloro-2-fluorophenyl)acetyl]-7-{[(3S)-3-(piperidin-1-ylmethyl)-3,4-dihydro-1H-isoquinolin-2-yl]carbonyl}-3,4-dihydro-1H-isoquinolin-6-yl}-N-(5-cyano-1,2-dimethylpyrrol-3-yl)-N-(4-hydroxyphenyl)-1,2-dimethylpyrrole-3-carboxamide] | 8.66 | 36.1 | 0.0073 µM | 9.30 | 8.5 | 9.46 | 8.87 | 9.62 | 12.2 | 0.0886 µM | 10.22 |
| Cc1c(N(C(=O)c2cc(-c3cc4c(cc3C(=O)N3Cc5ccccc5C[C@H]3C)CN(C(=O)Cc3ccc(OCCN5CCOCC5)cc3Cl)CC4)n(C)c2C)c2ccc(O)cc2)cc(C#N)n1C [Example 46, 5-[2-(2-{2-chloro-4-[2-(morpholin-4-yl)ethoxy]phenyl}acetyl)-7-[(3R)-3-methyl-1,2,3,4-tetrahydroisoquinoline-2-carbonyl]-1,2,3,4-tetrahydroisoquinolin-6-yl]-N-(5-cyano-1,2-dimethyl-1H-pyrrol-3-yl)-N-(4-hydroxyphenyl)-1,2-dimethyl-1H-pyrrole-3-carboxamide] | 8.82 | 10.7 | 0.0051 µM | 9.52 | 2.4 | 9.64 | 9.46 | 9.70 | 5 | 0.0256 µM | 9.85 |
| Cc1c(N(C(=O)c2cc(-c3cc4c(cc3C(=O)N3Cc5ccccc5C[C@H]3C)CN(C(=O)Cc3ccc(OCCN5CCN(CC(F)F)CC5)cc3)CC4)n(C)c2C)c2ccc(O)cc2)cc(C#N)n1C [Example 47, N-(5-cyano-1,2-dimethyl-1H-pyrrol-3-yl)-5-{2-[2-(4-{2-[4-(2,2-difluoroethyl)piperazin-1-yl]ethoxy}phenyl)acetyl]-7-[(3R)-3-methyl-1,2,3,4-tetrahydroisoquinoline-2-carbonyl]-1,2,3,4-tetrahydroisoquinolin-6-yl}-N-(4-hydroxyphenyl)-1,2-dimethyl-1H-pyrrole-3-carboxamide] | 8.70 | 18.9 | 0.008 µM | 9.70 | 2.0 | 9.62 | 9.34 | 9.80 | 4.5 | 0.0362 µM | 9.96 |
| Cc1c(N(C(=O)c2cc(-c3cc4c(cc3C(=O)N3Cc5ccccc5C[C@H]3C)CN(C(=O)Cc3ccc(C5CCN(CC(F)F)CC5)cc3F)CC4)n(C)c2C)c2ccc(O)cc2)cc(C#N)n1C [Example 48, N-(5-cyano-1,2-dimethylpyrrol-3-yl)-5-[2-(2-{4-[1-(2,2-difluoroethyl)piperidin-4-yl]-2-fluorophenyl}acetyl)-7-{[(3R)-3-methyl-3,4-dihydro-1H-isoquinolin-2-yl]carbonyl}-3,4-dihydro-1H-isoquinolin-6-yl]-N-(4-hydroxyphenyl)-1,2-dimethylpyrrole-3-carboxamide] | 8.03 | 18.8 | 0.0048 µM | 8.89 | 2.6 | 9.10 | 7.99 | 8.79 | 6.44 | 0.0268 µM | 9.30 |
| Cc1c(N(C(=O)c2cc(-c3cc4c(cc3C(=O)N3Cc5ccccc5C[C@H]3C)CN(C(=O)Cc3ccc(OCCN5CCC(F)(F)C5)cc3)CC4)n(C)c2C)c2ccc(O)cc2)cc(C#N)n1C [Example 50, N-(5-cyano-1,2-dimethyl-1H-pyrrol-3-yl)-5-[2-(2-{4-[2-(3,3-difluoropyrrolidin-1-yl)ethoxy]phenyl}acetyl)-7-[(3R)-3-methyl-1,2,3,4-tetrahydroisoquinoline-2-carbonyl]-1,2,3,4-tetrahydroisoquinolin-6-yl]-N-(4-hydroxyphenyl)-1,2-dimethyl-1H-pyrrole-3-carboxamide] | 8.24 | 22.3 | 0.0052 µM | 9.22 | 2.3 | 9.24 | 8.33 | 8.84 | 6.53 | 0.0341 µM | 9.59 |
| Cc1c(N(C(=O)c2cc(-c3cc4c(cc3C(=O)N3Cc5ccccc5C[C@H]3C)CN(C(=O)Cc3ccc(OCCN5CCO[C@@H](C)C5)cc3)CC4)n(C)c2C)c2ccc(O)cc2)cc(C#N)n1C [Example 57, N-(5-cyano-1,2-dimethyl-1H-pyrrol-3-yl)-N-(4-hydroxyphenyl)-1,2-dimethyl-5-{7-[(3R)-3-methyl-1,2,3,4-tetrahydroisoquinoline-2-carbonyl]-2-(2-{4-[2-((2S)-2-methylmorpholin-4-yl)ethoxy]phenyl}acetyl)-1,2,3,4-tetrahydroisoquinolin-6-yl}-1H-pyrrole-3-carboxamide] | 8.77 | 34.7 | 0.0048 µM | 9.70 | 4.1 | 9.82 | 9.33 | 9.68 | 4.32 | 0.0208 µM | 10.30 |
| Cc1c(N(C(=O)c2cc(-c3cc4c(cc3C(=O)N3Cc5ccccc5C[C@H]3C)CN(C(=O)Cc3ccc(OCCN(C)C5COC5)cc3)CC4)n(C)c2C)c2ccc(O)cc2)cc(C#N)n1C [Example 60, N-(5-cyano-1,2-dimethyl-1H-pyrrol-3-yl)-N-(4-hydroxyphenyl)-1,2-dimethyl-5-{2-[2-(4-{2-[methyl(oxetan-3-yl)amino]ethoxy}phenyl)acetyl]-7-[(3R)-3-methyl-1,2,3,4-tetrahydroisoquinoline-2-carbonyl]-1,2,3,4-tetrahydroisoquinolin-6-yl}-1H-pyrrole-3-carboxamide] | 9.00 | 19.2 | 0.0075 µM | 9.70 | 3.5 | 9.85 | 9.68 | 10.05 | 4.91 | 0.0367 µM | 10.30 |
